Paper doi:10.1101/2023.01.08.523168v1 (biorxiv, 2023)
Residues, ends and D or L forms follow the SMILES beside them. *: point of attachment. Oxazole(5-CO) = O=C(c1cnco1)*

Molecular target: T1, NanoLuc-ENL (ENL YEATS-NanoLuc luciferase fusion protein) (Homo sapiens, UniProt Q03111)
T1 sequence (Q03111 1-148): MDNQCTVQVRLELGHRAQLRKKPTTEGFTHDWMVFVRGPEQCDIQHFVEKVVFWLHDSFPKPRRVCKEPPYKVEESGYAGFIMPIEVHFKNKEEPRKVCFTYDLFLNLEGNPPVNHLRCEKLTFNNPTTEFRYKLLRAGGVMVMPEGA
Experiment: NanoBRET tracer displacement in HEK293T cells
Format: cell-based
Details: HEK-293T, read-out: % inhibition at 40 μM

## CC(=O)N[C@H](C(=O)N[C@@H](Cc1ccc(O)cc1)C(=O)N[C@@H](CS)C(=O)N[C@@H](Cc1ccc(O)cc1)C(=O)N[C@@H](CCCCNC(=O)c1cnco1)C(N)=O)C(C)C [tENL-S1o] (Ac-VYCYK(Oxazole(5-CO))-NH2)
  inhibition at 40 µM: ~50%
